Patent publication US12497393B2, “β-lactam compound, use thereof and preparation method therefor” (priority 2020, dated 2025)

Key:
Assay in all cases: Antibacterial activity MIC assay (two-fold dilution agar plating)
Assay type in all cases: cell-based
Enterobacter cloacae = test system: Enterobacter cloacae
In short: (§1)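 Agar plates carrying two-fold compound dilutions (0.03–128.0 μg/mL) were spot-inoculated with ATCC or clinically isolated bacteria and kept at 35 °C for 18 hours; the lowest growth-free concentration gave the MIC.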

Proteus mirabilis = Proteus mirabilis ATCC 49565
In short: as §1

Salmonella typhi = Salmonella typhi H901
In short: as §1

Citrobacter freundii = Citrobacter freundii ATCC 43864
In short: as §1

Providencia rettgeri = Providencia rettgeri ATCC 31052
In short: as §1

Proteus vulgaris = Proteus vulgaris ATCC 29905
In short: as §1

[1] = test system: Stenotrophomonas maltophilia; conditions: Stenotrophomonas maltophilia ATCC 13636
In short: as §1

Escherichia coli = test system: Escherichia coli
In short: as §1

Acinetobacter baumannii = test system: Acinetobacter baumannii
In short: as §1

Pseudomonas aeruginosa = test system: Pseudomonas aeruginosa
In short: as §1

Enterobacter aerogenes = Enterobacter aerogenes ATCC 13048
In short: as §1

Klebsiella Pneumoniae = test system: Klebsiella Pneumoniae
In short: as §1

Shigella flexneri = Shigella flexneri ATCC 12022
In short: as §1

Serratia marcescens = Serratia marcescens ATCC 21074
In short: as §1

C#CCON=C(C(=O)NC1C(=O)N(OS(=O)(=O)O)C1(C)C)c1csc(N)n1 (stereo not drawn) [Compound B-2]
Minimal Inhibitory Concentration (MIC) (Enterobacter cloacae; Enterobacter cloacae ATCC 43560): 0.5 µg/mL | Minimal Inhibitory Concentration (MIC) (Enterobacter cloacae; Enterobacter cloacae CDC1000654): 8 µg/mL | Minimal Inhibitory Concentration (MIC) (Proteus mirabilis): 0.06 µg/mL | Minimal Inhibitory Concentration (MIC) (Salmonella typhi): 0.5 µg/mL | Minimal Inhibitory Concentration (MIC) (Citrobacter freundii): 0.5 µg/mL | Minimal Inhibitory Concentration (MIC) (Providencia rettgeri): ≤0.03 µg/mL | Minimal Inhibitory Concentration (MIC) (Proteus vulgaris): ≤0.03 µg/mL | Minimal Inhibitory Concentration (MIC) [1]: 32 µg/mL | Minimal Inhibitory Concentration (MIC) (Escherichia coli; Escherichia coli 08-85, mcr-1(+)): 0.5 µg/mL | Minimal Inhibitory Concentration (MIC) (Escherichia coli; Escherichia coli 13-43, mcr-1(+)): 1 µg/mL | Minimal Inhibitory Concentration (MIC) (Escherichia coli; Escherichia coli 13-66, mcr-1(+)): 1 µg/mL | Minimal Inhibitory Concentration (MIC) (Escherichia coli; Escherichia coli 16-1, ESBLs(+)): 0.25 µg/mL | Minimal Inhibitory Concentration (MIC) (Escherichia coli; Escherichia coli 16-7, ESBLs(−)): 0.5 µg/mL | Minimal Inhibitory Concentration (MIC) (Escherichia coli; Escherichia coli ATCC 25922, ESBLs(−)): 0.5 µg/mL | Minimal Inhibitory Concentration (MIC) (Escherichia coli; Escherichia coli ATCC 35218, ESBLs(+)): 0.25 µg/mL | Minimal Inhibitory Concentration (MIC) (Escherichia coli; Escherichia coli CDC1001728, NDM-1(+)): 4 µg/mL | Minimal Inhibitory Concentration (MIC) (Acinetobacter baumannii; Acinetobacter baumannii 16-16): 32 µg/mL | Minimal Inhibitory Concentration (MIC) (Acinetobacter baumannii; Acinetobacter baumannii 16-33): 4 µg/mL | Minimal Inhibitory Concentration (MIC) (Acinetobacter baumannii; Acinetobacter baumannii ATCC 19606): 4 µg/mL | Minimal Inhibitory Concentration (MIC) (Pseudomonas aeruginosa; Pseudomonas aeruginosa 16-11): >64 µg/mL | Minimal Inhibitory Concentration (MIC) (Pseudomonas aeruginosa; Pseudomonas aeruginosa ATCC 27853): >64 µg/mL | Minimal Inhibitory Concentration (MIC) (Pseudomonas aeruginosa; Pseudomonas aeruginosa PAO1): 32 µg/mL | Minimal Inhibitory Concentration (MIC) (Enterobacter aerogenes): 1 µg/mL | Minimal Inhibitory Concentration (MIC) (Klebsiella Pneumoniae; Klebsiella Pneumoniae 09-20, mcr-1(+)): 1 µg/mL | Minimal Inhibitory Concentration (MIC) (Klebsiella Pneumoniae; Klebsiella Pneumoniae 16-2, ESBLs(−)): 0.5 µg/mL | Minimal Inhibitory Concentration (MIC) (Klebsiella Pneumoniae; Klebsiella Pneumoniae 16-14, ESBLs(+)): 1 µg/mL | Minimal Inhibitory Concentration (MIC) (Klebsiella Pneumoniae; Klebsiella Pneumoniae ATCC 700603, ESBLs(+)): 16 µg/mL | Minimal Inhibitory Concentration (MIC) (Klebsiella Pneumoniae; Klebsiella Pneumoniae ATCC BAA-2146, NDM-1(+)): 8 µg/mL | Minimal Inhibitory Concentration (MIC) (Shigella flexneri): 0.5 µg/mL | Minimal Inhibitory Concentration (MIC) (Serratia marcescens): 0.5 µg/mL
